Measured values published in ChEMBL document CHEMBL4622909, “PARP inhibitor cyanine dye conjugate with enhanced cytotoxic and antiproliferative activity in patient derived glioblastoma cell lines” (Bioorg Med Chem Lett, 2020).
Blank lines part the entries; values can stand above or below the compound they belong to. Calls of active or inactive are those of the source. No cut-off for these calls is given here.

Tests used:
[1] = tested on: GBM; assay: Cytotoxicity against human patient derived GBM cells assessed as reduction in cell viability measured after 48 hrs by Hoechst staining based assay; assay type: functional
[2] = tested on: GBM; assay: Synergistic cytotoxicity against human patient derived GBM cells assessed as reduction in cell viability measured after 48 hrs in presence of temozolomide by Hoechst staining based assay; assay type: functional
[3] = tested on: GBM; assay: Antiproliferative activity against human patient derived GBM cells assessed as reduction in cell proliferation measured after 48 hrs by Edu incorporation assay; assay type: functional, cell-based
[4] = tested on: GBM; assay: cells; assay type: functional, cell-based; details: Homo sapiens, 48 h
Description: Synergistic antiproliferative activity against human patient derived GBM cells assessed as reduction in cell proliferation measured after 48 hrs in presence of temozolomide by Edu incorporation assay

[5] = tested on: GBM; assay: Antiproliferative activity against human patient derived GBM cells assessed as reduction in cell proliferation measured after 48 hrs by Edu incorporation assay relative to compound alone; assay type: functional
[6] = tested on: GBM; assay: Antiproliferative activity against human patient derived GBM cells assessed as reduction in cell proliferation up to 100 uM measured after 48 hrs by Edu incorporation assay; assay type: functional, cell-based
[7] = tested on: GBM; assay: Ratio of EC50 for cytotoxicity against human patient derived GBM assessed as reduction in cell viability measured after 48 hrs by Hoechst staining based assay to EC50 for synergistic cytotoxicity against human patient derived GBM assessed as reduction in cell viability measured after 48 hrs in presence of temozolomide by Hoechst staining based assay; assay type: functional
[8] = tested on: GBM; assay: Potency index, ratio of rucaparib IC50 to test compound IC50 for human patient derived GBM cells assessed as reduction in cell viability measured after 48 hrs by Hoechst staining based assay; assay type: functional
[9] = tested on: GBM; assay: Potency index, ratio of IR-786 IC50 to test compound IC50 for human patient derived GBM cells assessed as reduction in cell viability measured after 48 hrs by Hoechst staining based assay; assay type: functional
[10] = tested on: GBM; assay: Potency index, ratio of IR-786 IC50 to test compound IC50 for synergistic cytotoxicity against human patient derived GBM cells assessed as reduction in cell viability measured after 48 hrs in presence of temozolomide by Hoechst staining based assay; assay type: functional

IC50 [4]: 2260 nM
Compound: CNCc1ccc(-c2[nH]c3cc(F)cc4c3c2CCNC4=O)cc1 [RUCAPARIB]
EC50 [1]: > 100000 nM | EC50 [2]: > 100000 nM | IC50 [3]: 53400 nM | Ratio IC50 [5]: 24

Compound: Cn1nnc2c(C(N)=O)ncn2c1=O
Activity [6]: inactive

IC50 [4]: 20 nM
Compound: CN1/C(=C/C=C2\CCCC(/C=C/C3=[N+](C)c4ccccc4C3(C)C)=C2N2CCN(c3ccc(-c4[nH]c5cc(F)cc6c5c4CCNC6=O)cc3)CC2)C(C)(C)c2ccccc21.[I-]
EC50 [1]: 128 nM | EC50 [2]: 56 nM | Ratio EC50 [7]: 2 | IC50 [3]: 21 nM | Ratio IC50 [8]: 780 | Ratio IC50 [9]: 13.5 | Ratio IC50 [10]: 7 | Ratio IC50 [5]: 2
